Several values for one entry are separate records, joined by “and”; a condition that tells them apart may be missing. Identical values can stand only once.
Legend:
Assay type in all cases: in vivo, human
[1] = Phase 2 clinical trial, patient body weight and tolerability
Protocol: See Example 1, below. […] In this study, the protocol stipulated that patient weights were to be taken at baseline (D−1=1 day before initiation of dosing), Day 28, and Day 56. […] In this study, the protocol stipulated that patient weights were to be taken at baseline (D−1=1 day before initiation of dosing), Day 28, and Day 56. […] Prior to initiation of treatment, basic clinical observations (e.g., weight, blood pressure, height) were recorded along with baseline values for serum creatinine, blood urea nitrogen, serum phosphorus, serum uric acid, angiotensin II, fasting glucose, hemoglobin A1c, circulating endothelial cells (CECs), and iNOS-positive CECs.

[2] = Phase 2b/3 trial, estimated GFR and CKD stage; details: for patients with improvement in CKD stage: Stage 4 to 3b or 3b to 3a; for Change from baseline eGFR, mean ± SE: longitudinal model
Protocol: Weight measurements were included in the study as a basic clinical parameter. […] Screening estimated GFR was calculated as the mean of two estimated GFR results (differing no more than 25%) collected at least 5 days apart within a 3-week period. […] Exclusion criteria included type 1 diabetes, non-diabetic kidney disease, hemoglobin A1c>10%, QTc […] interval >450 milliseconds, evidence of hepatic dysfunction, and recent cardiovascular disease. […] Study drug was taken orally once daily in the morning one hour prior to food intake. Dose titration occurred as follows: (1) placebo; (2) 25 mg; (3) 25 mg, increased to 75 mg after 4 weeks; and (4) 25 mg, increased to 75 mg after 4 weeks, further increased to 150 mg after an additional 4 weeks. Randomization was stratified by CKD stage (3b versus 4), urinary albumin to creatinine ratio (ACR; ≤ versus >300 mg/g), and glucose control (hemoglobin A1c< versus ≥7%). An independent Data Safety Monitoring Board monitored patient safety. Estimated GFR and routine safety laboratory testing was done at screening and every four weeks thereafter using a central laboratory. Adverse events and clinical laboratory parameters were assessed at each visit. Analysis of the primary outcome, change from baseline estimated GFR at Week 24, occurred after all randomized patients completed Week 24 or previously discontinued study. Exploratory outcomes included change from baseline at Week 24 in serum creatinine, blood urea nitrogen, serum phosphorus, uric acid, ACR, hemoglobin A1c, and intact parathyroid hormone.

Nrf2 = Nrf2 activity in blood cells in clinical trials; details: at therapeutic doses
From the text: One AIM, bardoxolone methyl (BARD), is in advanced clinical trials for the treatment of chronic kidney disease.

[3] = Week 24, all bardoxolone methyl patients

COC(=O)[C@]12CCC(C)(C)C[C@H]1[C@H]1C(=O)C=C3[C@@]4(C)C=C(C#N)C(=O)C(C)(C)[C@@H]4CC[C@@]3(C)[C@]1(C)CC2 [bardoxolone methyl]
mean weight loss ([1]; Day 28): 1.6 % of baseline weight | patients who had lost weight at Day 28 ([1]; Day 28, 25 mg once per day): 14 of 17 | mean weight loss ([1]; Day 56): 3.7 % of baseline | median weight loss ([1]; Day 56, of baseline): 3.1% | patients who had lost weight at Day 56 ([1]; Day 56, 25 mg/day 28 days then 75 mg/day 28 days): 17 of 17 | patients who lost more than 2% of their baseline weight ([1]; between Day −1 and Day 56): all but three | Weight D28 ([1]; individual CKD/Type 2 diabetes patients, Day 28, 25 mg once per day oral): 80.7 kg and 75.7 kg and 108.9 kg (2×) and 80.3 kg and 112.9 kg and 78.9 kg and 88.5 kg and 104.3 kg and 169.3 kg and 52.6 kg and 83.5 kg and 159.7 kg and 114 kg and 92.1 kg and 89.9 kg and 88.0 kg | Percent Change D28/D-1 (weight) ([1]; individual patients, Day 28 vs baseline, 25 mg/day): 0.0% (2×) and −0.7% and −2.4% (2×) and −1.6% and −3.5% and −1.2% and −8.5% and −1.4% and −0.1% and −12.8% and −0.5% and 0.3% and −0.3% and −1.0% and −3.0% | Weight D56 ([1]; individual patients, Day 56, 25 mg/day 28 days then escalated to 75 mg/day 28 days): 75.7 kg and 74.4 kg and 107.0 kg and 78.5 kg and 97.1 kg and 108.0 kg and 111.1 kg and 77.1 kg and 88 kg and 102.1 kg and 165.9 kg and 52.2 kg and 80.3 kg and 157.9 kg and 110.4 kg and 87.1 kg | Weight D56 ([1]; individual patients, Day 56, start dose 25 mg, escalated dose N/A): 91.6 kg and 87.4 kg | Percent Change D56/D-1 (weight) ([1]; individual patients, Day 56 vs baseline, 25 mg/day then escalated to 75 mg/day): −6.2% and −2.4% and −4.1% and −3.8% and −6.9% and −3.2% and −2.8% and −10.6% and −2.0% and −2.1% and −13.4% and −4.3% and −0.8% and −3.5% and −1.0% | Percent Change D56/D-1 (weight) ([1]; individual patients, Day 56 vs baseline, start dose 25 mg, escalated dose N/A): −1.5% and −5.7% | Weight D28, Mean ([1]; mean of all patients, Day 28): 99.4 kg | Percent Change D28/D-1 (weight), Mean ([1]; mean of all patients, Day 28 vs baseline): −1.6% | Weight D56, Mean ([1]; mean of all patients, Day 56): 97.3 kg | Percent Change D56/D-1 (weight), Mean ([1]; mean of all patients, Day 56 vs baseline): −3.7% | tolerability ([1]; patients with Type 2 diabetes and CKD, 56 days): very well tolerated | patients with improvement in CKD stage ([2]; 25 mg group): 53% | patients with improvement in CKD stage ([2]; 75 mg group): 69% | patients with improvement in CKD stage ([2]; 150 mg group): 61% | estimated GFR, mean increases compared to placebo ([2]; Week 24, 25 mg group): 8.3±1.1 mL/min/1.73 m^2 | Change from baseline eGFR, difference between bardoxolone methyl and placebo, mean ± SE ([2]; Week 24, 25 mg vs placebo): 8.2 ± 1.5 mL/min/1.73 m^2 | Change from baseline eGFR, mean ± SE ([2]; Week 24, 25 mg): 8.3 ± 1.1 mL/min/1.73 m^2 | estimated GFR, mean increases compared to placebo ([2]; Week 24, 75 mg group): 11.5±1.1 mL/min/1.73 m^2 | Change from baseline eGFR, difference between bardoxolone methyl and placebo, mean ± SE ([2]; Week 24, 75 mg vs placebo): 11.4 ± 1.5 mL/min/1.73 m^2 | Change from baseline eGFR, mean ± SE ([2]; Week 24, 75 mg): 11.5 ± 1.1 mL/min/1.73 m^2 | estimated GFR, mean increases compared to placebo ([2]; Week 24, 150 mg group): 10.6±1.1 mL/min/1.73 m^2 | Change from baseline eGFR, difference between bardoxolone methyl and placebo, mean ± SE ([2]; Week 24, 150 mg vs placebo): 10.5 ± 1.5 mL/min/1.73 m^2 | Change from baseline eGFR, mean ± SE ([2]; Week 24, 150 mg): 10.6 ± 1.1 mL/min/1.73 m^2 | patients with more than a 10% increase in estimated GFR [2, 3]: 74% | patients with more than a 50% increase in estimated GFR [2, 3]: 24% | Change from baseline eGFR, difference between bardoxolone methyl and placebo, mean ± SE ([2]; Week 24, combined vs placebo): 10.0 ± 1.3 mL/min/1.73 m^2 | time from treatment initiation to observed increases in estimated GFR ([2]; bardoxolone methyl groups): ≤ 4 weeks | time of peak increase in estimated GFR ([2]; bardoxolone methyl groups, stable through Week 24): 12 Week | patients with worsening of CKD stage ([2]; each bardoxolone methyl group (2 patients)): 4% | Nrf2 activity in blood cells (Nrf2): induces Nrf2 activity

Reference: US10105372B2, “Methods of treating obesity using antioxidant inflammation modulators” (REATA PHARMACEUTICALS, INC., priority 2010, dated 2018)
